Common to all, as to type: physicochemical
Data set [1] is described as follows: Aqueous solubility of compound 937 salts and free base (excess solid stirred in water, filtered, HPLC). As to conditions: thermodynamic from solid, RT, stirred 4 hours, excess solid (target 10 mg/ml). The text has this:
The obtained preparations have been filtered and analyzed by means of HPLC.

A short description of data set [2]: Solubility of compound 937 in early formulation vehicles / as in situ salt. The following applies: aqueous with cosolvent or surfactant or cyclodextrin; in 10% polysorbate 80 in 5% dextrose solution.
The nature of data set [3]: Solid state stability on storage at stressed temperature and humidity. As to conditions: storage at 40° C./75% RH.
A short description of data set [4]: Hygroscopicity test by Dynamic Vapour Sorption (DVS). The following applies: for Water uptake: 25° C. On the procedure: The apparatus is a “controlled atmosphere microbalance” where the weighed sample is exposed to programmed variations of the relative humidity (RH) at a constant and controlled temperature. The measured parameters (weight, time and RH), reported in Excel worksheets, allow obtaining hygroscopicity curves over the tested RH range. Sorption/desorption cycles between 0% and 90% RH can be performed at controlled temperature of 25° C. Progressive variations of RH are of 10%; they are operated by the software at the equilibration of the sample weight. This condition can be defined at a constant rate of percent weight variation e.g. 0.005%/min. The experimental results are reported both as in the DVS Isotherm Reports and Isotherm Plots.

The solubility is how much of the substance goes into solution per volume.

Structures are written as SMILES. A value given as a limit tells only on which side of the number the result lay.

As to `CN1CCN(c2ccc(OC(F)(F)F)c(Nc3ncc4c(n3)-c3c(c(C(N)=O)nn3CCO)CC4)c2)CC1` [compound 937, 1-(2-hydroxy-ethyl)-8-[5-(4-methyl-piperazin-1-yl)-2-trifluoromethoxy-phenylamino]-4,5-dihydro-1H-pyrazolo[4,3-h]quinazoline-3-carboxamide], the solubility at 4 h in data set [1] is less than 100 µg/mL. In addition, the solubility in data set [2] was roughly 4000 µg/mL.
With `CN1CCN(c2ccc(OC(F)(F)F)c(Nc3ncc4c(n3)-c3c(c(C(N)=O)nn3CCO)CC4)c2)CC1.O=C(O)CCC(=O)O` [compound 937 succinate salt form II], the “solid form stability (in words)” value in data set [3] was “stable”.
On to `CN1CCN(c2ccc(OC(F)(F)F)c(Nc3ncc4c(n3)-c3c(c(C(N)=O)nn3CCO)CC4)c2)CC1.O=C(O)C[C@H](O)C(=O)O` [compound 937 L-malate salt], for which, in data set [4], the “hygroscopicity (in words)” value is given as “moderately hygroscopic”. Moreover, in data set [4] (90% RH), the Water uptake entry is “about 4.7%”.
`CN1CCN(c2ccc(OC(F)(F)F)c(Nc3ncc4c(n3)-c3c(c(C(N)=O)nn3CCO)CC4)c2)CC1.O=C(O)/C=C/C(=O)O` [compound 937 fumarate salt]: the Water uptake in data set [4] (90% RH) is 1.6%; in data set [4] (DVS sorption ramp, 0.0% RH), 0.0%; in data set [4] (DVS sorption ramp, 10.0% RH), 0.1%; in data set [4] (DVS sorption ramp, 20.0% RH), 0.3%; in data set [4] (DVS sorption ramp, 30.0% RH), 0.4%; in data set [4] (DVS sorption ramp, 40.0% RH) it was 0.6%. Moreover, the Water uptake in data set [4] (DVS sorption ramp, 50.0% RH) is on record as 0.9%; in data set [4] (DVS sorption ramp, 60.0% RH) it was 1.2%; in data set [4] (DVS sorption ramp, 70.0% RH) it was 1.4%; in data set [4] (DVS sorption ramp, 80.0% RH), 1.5%.
As for `CN1CCN(c2ccc(OC(F)(F)F)c(Nc3ncc4c(n3)-c3c(c(C(N)=O)nn3CCO)CC4)c2)CC1.O=C(O)C(O)C(O)C(=O)O` [compound 937 L-tartrate salt], the “hygroscopicity (in words)” value in data set [4] is recorded as “moderately hygroscopic”. Also, the Water uptake in data set [4] (90% RH) is on record as roughly 5.8%.
For `CN1CCN(c2ccc(OC(F)(F)F)c(Nc3ncc4c(n3)-c3c(c(C(N)=O)nn3CCO)CC4)c2)CC1.O=C(O)/C=C\C(=O)O` [compound 937 maleate salt form II], the “solid form stability (in words)” value in data set [3] is reported as “undergoes conversion to form I”. Besides, the “hygroscopicity (in words)” value in data set [4] was “moderately hygroscopic”.

The values are drawn from patent US8648078B2, “PLK inhibitor salts” (Nerviano Medical Sciences S.R.L., priority 2009, dated 2014).
